Read-outs that look alike come from different tables or passages of the source. Starred links: 1 amine or outer side, 2 acyl side, 3 side chain; linkers in the order of their positions; H or OH if unused. Positions of bridges follow the written chain, without caps; N, C: chain ends. Non-standard residues stand in square brackets, D forms with d. Residues, ends and D or L forms follow the SMILES beside them. *: point of attachment. X13 = O=C(O)c1ccc(-n2cc(C[C@H](N[*:1])C(=O)[*:2])c3ccccc32)cc1; Phe(3-OCH2COOH) = N[C@@H](Cc1cccc(OCC(=O)O)c1)C(=O)O; Piperidine(4-CH2CH2CONH2) = NC(=O)CCC1CCN(*)CC1; Trp(6-OH) = N[C@@H](Cc1c[nH]c2cc(O)ccc12)C(=O)O; Phe(4-COOH) = N[C@@H](Cc1ccc(C(=O)O)cc1)C(=O)O; Piperazinyl(4-CH2COOH) = O=C(O)CN1CCN(*)CC1; Gly(decyl) = CCCCCCCCCC[C@H](N)C(=O)O; Gly(N(CH2)3COOH) = O=C(O)CCCNCC(=O)O; Gly(octyl) = CCCCCCCC[C@H](N)C(=O)O; X1 = CCCCCCC[C@H](N[*:1])C(=O)[*:2]; Gly(N-(CH2)3OMe) = COCCCNCC(=O)O; NMeF = CN[C@@H](Cc1ccccc1)C(=O)O; NMeE = CN[C@@H](CCC(=O)O)C(=O)O; Cha = N[C@@H](CC1CCCCC1)C(=O)O; NMeA = CN[C@@H](C)C(=O)O; NEtG = CCNCC(=O)O; Sar = CNCC(=O)O
Tests used:
Type in all cases: cell-based
Myostatin [1] = target: T1, Myostatin (Homo sapiens, UniProt O14793); assay: Reporter gene assay for myostatin signaling in HepG2 cell line, Evaluation Procedure (1), myostatin inhibition; conditions: read-out: IC50 (Luciferase) Myostatin HepG2
T1 construct: active myostatin (also called mature myostatin) is a homodimer consisting of two C-terminal growth factor domains; purchased R&D systems 788-G8/CF
T1 sequence (O14793 267-375): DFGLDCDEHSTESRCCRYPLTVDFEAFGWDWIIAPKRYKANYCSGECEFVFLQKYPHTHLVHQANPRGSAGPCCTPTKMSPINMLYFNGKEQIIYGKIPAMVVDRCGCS
Outline: (§1)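 IC50 derived from One-Glo luciferase luminescence after 20–24 h at 37 °C. Peptides titrated 4-fold at 0.006–100 nmol/L against myostatin or 0.12–2000 nmol/L against GDF-11 in HepG2 cells carrying a transfected CAGA12-luciferase reporter, kept in 0.1% BSA EMEM.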

Myostatin [2] = assay: as above; conditions: GDF-11 IC50 versus Myostatin IC50
Outline: as §1

GDF-11 = target: T2, GDF-11 (Homo sapiens, UniProt O95390); assay: Reporter gene assay for myostatin signaling in HepG2 cell line, Evaluation Procedure (1), GDF-11 inhibition; conditions: read-out: IC50 (Luciferase) GDF-11 HepG2
T2 construct: purchased R&D systems 1958-GD-G8/CF
T2 sequence (O95390 299-407): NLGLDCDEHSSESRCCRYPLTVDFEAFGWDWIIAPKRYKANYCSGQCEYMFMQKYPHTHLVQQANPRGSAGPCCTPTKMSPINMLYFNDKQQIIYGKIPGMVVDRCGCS
Outline: as §1

Myostatin [3] = target: T1, Myostatin; assay: HepG2 reporter gene assay, Evaluation Procedure (2): 2-concentrations assay, myostatin inhibition; conditions: Myostatin 10 ng/mL, HepG2
Outline: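 Myostatin inhibition was measured in a luciferase reporter assay using HepG2 cells transfected with a pGL3 vector containing 12 CAGA repeats upstream of luciferase. After 20 to 24 hours with 10 ng/mL myostatin, cells received One-Glo:PBS (1:1) at 100 µL/well, were shaken for 5 min, and 20 µL/well was moved to 384-well plates and read on an Envision 2104.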

| SMILES | IC50 (Myostatin [1]; Method D: Myostatin 1.5 ng/mL) [nM] | IC50 (GDF-11; Method D: GDF-11 1.5 ng/mL) [nM] | Selectivity (Myostatin [2]; Method D) | further results |
| --- | --- | --- | --- | --- |
| CCCCCCCCCC[C@@H]1NC(=O)[C@H](CC2CCCCC2)NC(=O)[C@H](CCCNC(=N)N)NC(=O)[C@H](Cc2ccc(C(=O)O)cc2)NC(=O)[C@H](Cc2cccc(OCC(=O)O)c2)NC(=O)CN(C)C(=O)[C@H]([C@@H](C)CC)NC(=O)[C@H](Cc2ccccc2)N(C)C(=O)[C@H](Cc2ccc(O)cc2)NC(=O)[C@H](Cc2c[nH]c3ccccc23)NC(=O)[C@H](C)NC(=O)[C@H](C)NC(=O)CSC[C@H](C(=O)N2CCN(CC(=O)O)CC2)NC(=O)[C@H](Cc2ccccc2)N(C)C(=O)[C@H](CCC(=O)O)N(C)C1=O [Myostatin_99_v261] ({CH2CO}-AAWY[NMeF]I[Sar][Phe(3-OCH2COOH)][Phe(4-COOH)]R[Cha][Gly(decyl)][NMeE][NMeF][dC]-{Piperazinyl(4-CH2COOH)}; thioether N-15) | – | – | – | IC50 (Myostatin [1]; Method B: Myostatin 1 ng/mL): 0.16 nM; Selectivity (Myostatin [2]; Method B): 181; IC50 (GDF-11; Method B: GDF-11 1 ng/mL): 29 nM; inhibition at 0.03 µM (Myostatin [3]; peptide 30nM, read-out: Myostatin Inhibition 30nM): 26%; inhibition at 0.1 µM (Myostatin [3]; peptide 100nM, read-out: Myostatin Inhibition 100nM): 72% |
| CCCCCCCCCC[C@@H]1NC(=O)[C@H](Cc2ccccc2)N(C)C(=O)[C@H](CCCNC(=N)N)NC(=O)[C@H](Cc2ccc(C(=O)O)cc2)NC(=O)[C@H](Cc2cccc(OCC(=O)O)c2)NC(=O)[C@H]2CCCN2C(=O)[C@H]([C@@H](C)CC)NC(=O)[C@H](Cc2ccccc2)N(C)C(=O)[C@H](Cc2ccc(O)cc2)NC(=O)[C@H](Cc2c[nH]c3ccccc23)NC(=O)[C@H](C)NC(=O)[C@H](C)NC(=O)CSC[C@H](C(=O)N2CCC(CCC(N)=O)CC2)NC(=O)[C@H](Cc2ccccc2)N(C)C(=O)[C@H](CCC(=O)O)N(C)C1=O [Myostatin_99_v344] ({CH2CO}-AAWY[NMeF]I[dP][Phe(3-OCH2COOH)][Phe(4-COOH)]R[NMeF][Gly(decyl)][NMeE][NMeF][dC]-{Piperidine(4-CH2CH2CONH2)}; thioether N-15) | – | – | – | IC50 (Myostatin [1]; Method C: Myostatin 1.5 ng/mL): 0.08 nM; Selectivity (Myostatin [2]; Method C): 812.6; IC50 (GDF-11; Method C: GDF-11 1 ng/mL): 62.3 nM |
| CCCCCCCCCC[C@@H]1NC(=O)[C@H](Cc2ccccc2)N(C)C(=O)[C@H](CCCNC(=N)N)NC(=O)[C@H](Cc2ccc(C(=O)O)cc2)NC(=O)[C@H](Cc2cccc(OCC(=O)O)c2)NC(=O)CN(C)C(=O)[C@H]([C@@H](C)CC)NC(=O)[C@H](Cc2ccccc2)N(C)C(=O)[C@H](Cc2ccc(O)cc2)NC(=O)[C@H](Cc2c[nH]c3ccccc23)NC(=O)[C@H](C)NC(=O)[C@H](C)NC(=O)CSC[C@H](C(=O)N2CCC(CCC(N)=O)CC2)NC(=O)[C@H](Cc2ccccc2)N(C)C(=O)[C@H](CCC(=O)O)N(C)C1=O [Myostatin_99_v346] ({CH2CO}-AAWY[NMeF]I[Sar][Phe(3-OCH2COOH)][Phe(4-COOH)]R[NMeF][Gly(decyl)][NMeE][NMeF][dC]-{Piperidine(4-CH2CH2CONH2)}; thioether N-15) | – | – | – | IC50 (Myostatin [1]; Method C: Myostatin 1.5 ng/mL): 0.09 nM; Selectivity (Myostatin [2]; Method C): 116.0; IC50 (GDF-11; Method C: GDF-11 1 ng/mL): 10.5 nM |
| CCCCCCC[C@@H]1NC(=O)[C@H](Cc2ccccc2)N(C)C(=O)[C@H](CCCNC(=N)N)NC(=O)[C@H](Cc2ccc(C(=O)O)cc2)NC(=O)[C@H](Cc2cccc(OCC(=O)O)c2)NC(=O)[C@H](C)N(C)C(=O)[C@H]([C@@H](C)CC)NC(=O)[C@H](Cc2ccccc2)N(C)C(=O)[C@H](Cc2ccc(O)cc2)NC(=O)[C@H](Cc2cn(-c3ccc(C(=O)O)cc3)c3ccccc23)NC(=O)[C@H](C)NC(=O)CN(CCCC(=O)O)C(=O)CSC[C@H](C(=O)O)NC(=O)[C@H](Cc2ccccc2)N(C)C(=O)[C@H](C)N(C)C1=O [Myostatin_99_v372] ({CH2CO}-[Gly(N(CH2)3COOH)]A[X13]Y[NMeF]I[NMeA][Phe(3-OCH2COOH)][Phe(4-COOH)]R[NMeF][X1][NMeA][NMeF][dC]-OH; thioether N-15) | 0.09 | 7.08 | 76.611 | – |
| CCCCCCCCCC[C@@H]1NC(=O)[C@H](Cc2ccccc2)N(C)C(=O)[C@H](CCCNC(=N)N)NC(=O)[C@H](Cc2ccc(C(=O)O)cc2)NC(=O)[C@H](Cc2cccc(OCC(=O)O)c2)NC(=O)[C@H]2CCCN2C(=O)[C@H]([C@@H](C)CC)NC(=O)[C@H](Cc2ccccc2)N(C)C(=O)[C@H](Cc2ccc(O)cc2)NC(=O)[C@H](Cc2c[nH]c3cc(O)ccc23)NC(=O)[C@H](C)NC(=O)[C@H](C)NC(=O)CSC[C@H](C(=O)N2CCC(CCC(N)=O)CC2)NC(=O)[C@H](Cc2ccccc2)N(C)C(=O)[C@H](CCC(=O)O)N(C)C1=O [Myostatin_99_v382] ({CH2CO}-AA[Trp(6-OH)]Y[NMeF]I[dP][Phe(3-OCH2COOH)][Phe(4-COOH)]R[NMeF][Gly(decyl)][NMeE][NMeF][dC]-{Piperidine(4-CH2CH2CONH2)}; thioether N-15) | 0.04 | 29.6 | 711.775 | – |

Second part, led by results:

| IC50 (Myostatin [1]; Method D: Myostatin 1.5 ng/mL) [nM] | IC50 (GDF-11; Method D: GDF-11 1.5 ng/mL) [nM] | SMILES | Selectivity (Myostatin [2]; Method D) | further results |
| --- | --- | --- | --- | --- |
| 0.18 | 40.5 | CCCCCCCCCC[C@@H]1NC(=O)[C@H](Cc2ccccc2)N(C)C(=O)[C@H](CCCNC(=N)N)NC(=O)[C@H](Cc2ccc(C(=O)O)cc2)NC(=O)[C@H](Cc2cccc(OCC(=O)O)c2)NC(=O)CN(CC)C(=O)[C@H]([C@@H](C)CC)NC(=O)[C@H](Cc2ccccc2)N(C)C(=O)[C@H](Cc2ccc(O)cc2)NC(=O)[C@H](Cc2c[nH]c3cc(O)ccc23)NC(=O)[C@H](C)NC(=O)[C@H](C)NC(=O)CSC[C@H](C(=O)N2CCC(CCC(N)=O)CC2)NC(=O)[C@H](Cc2ccccc2)N(C)C(=O)[C@H](CCC(=O)O)N(C)C1=O [Myostatin_99_v383] ({CH2CO}-AA[Trp(6-OH)]Y[NMeF]I[NEtG][Phe(3-OCH2COOH)][Phe(4-COOH)]R[NMeF][Gly(decyl)][NMeE][NMeF][dC]-{Piperidine(4-CH2CH2CONH2)}; thioether N-15) | 220.797 | – |
| 0.04 | 32.8 | CCCCCCCCCC[C@@H]1NC(=O)[C@H](Cc2ccccc2)N(C)C(=O)[C@H](CCCNC(=N)N)NC(=O)[C@H](Cc2ccc(C(=O)O)cc2)NC(=O)[C@H](Cc2cccc(OCC(=O)O)c2)NC(=O)[C@H]2CCCN2C(=O)[C@H]([C@@H](C)CC)NC(=O)[C@H](Cc2ccccc2)N(C)C(=O)[C@H](Cc2ccc(O)cc2)NC(=O)[C@H](Cc2c[nH]c3cc(O)ccc23)NC(=O)[C@H](C)NC(=O)[C@H](C)NC(=O)CSC[C@H](C(=O)N2CCN(CC(=O)O)CC2)NC(=O)[C@H](Cc2ccccc2)N(C)C(=O)[C@H](CCC(=O)O)N(C)C1=O [Myostatin_99_v384] ({CH2CO}-AA[Trp(6-OH)]Y[NMeF]I[dP][Phe(3-OCH2COOH)][Phe(4-COOH)]R[NMeF][Gly(decyl)][NMeE][NMeF][dC]-{Piperazinyl(4-CH2COOH)}; thioether N-15) | 805.658 | – |
| 0.17 | 42.5 | CCCCCCCCCC[C@@H]1NC(=O)[C@H](Cc2ccccc2)N(C)C(=O)[C@H](CCCNC(=N)N)NC(=O)[C@H](Cc2ccc(C(=O)O)cc2)NC(=O)[C@H](Cc2cccc(OCC(=O)O)c2)NC(=O)CN(CC)C(=O)[C@H]([C@@H](C)CC)NC(=O)[C@H](Cc2ccccc2)N(C)C(=O)[C@H](Cc2ccc(O)cc2)NC(=O)[C@H](Cc2c[nH]c3cc(O)ccc23)NC(=O)[C@H](C)NC(=O)[C@H](C)NC(=O)CSC[C@H](C(=O)N2CCN(CC(=O)O)CC2)NC(=O)[C@H](Cc2ccccc2)N(C)C(=O)[C@H](CCC(=O)O)N(C)C1=O [Myostatin_99_v385] ({CH2CO}-AA[Trp(6-OH)]Y[NMeF]I[NEtG][Phe(3-OCH2COOH)][Phe(4-COOH)]R[NMeF][Gly(decyl)][NMeE][NMeF][dC]-{Piperazinyl(4-CH2COOH)}; thioether N-15) | 251.449 | – |
| 0.22 | 29.6 | CCCCCCCC[C@@H]1NC(=O)[C@H](Cc2ccccc2)N(C)C(=O)[C@H](CCCNC(=N)N)NC(=O)[C@H](Cc2ccc(OC)cc2)NC(=O)[C@H](Cc2cccc(OCC(=O)O)c2)NC(=O)CN(C)C(=O)[C@H]([C@@H](C)CC)NC(=O)[C@H](Cc2ccccc2)N(C)C(=O)[C@H](Cc2ccc(O)cc2)NC(=O)[C@H](Cc2c[nH]c3cc(O)ccc23)NC(=O)[C@H](C)NC(=O)CN(CCCOC)C(=O)CSC[C@H](C(N)=O)NC(=O)[C@H](Cc2ccccc2)N(C)C(=O)[C@H](C)N(C)C1=O [Myostatin_99_v418] ({CH2CO}-[Gly(N-(CH2)3OMe)]A[Trp(6-OH)]Y[NMeF]I[Sar][Phe(3-OCH2COOH)]Y(Me)R[NMeF][Gly(octyl)][NMeA][NMeF][dC]-NH2; thioether N-15) | 136.2 | – |

From patent EP4786487A1, “PEPTIDE” (Peptidream Inc, priority 2023, dated 2025)
